From US5053333A, “Protease” (M & D Research Co., Ltd., priority 1988, dated 1991) come the findings set out here.

Entries after “also recorded” stand apart in the source; their conditions may differ. Like-named read-outs stand apart in the source and are kept apart here. Square brackets hold non-standard residues; d marks the D form. Ends that are not written are not given here. Peptide text beside a SMILES is read from it. pGlu = O=C1CC[C@@H](C(=O)O)N1

The subject of assay [1] is Benz-I (protease specific for basic amino acid residue). Put plainly: Cleavage of peptides by Benz-I, HPLC and amino acid composition of fragments. In kind it is biochemical, Kluyveromyces lactis IFO 1903. On the procedure:
The composition of the employed reaction mixture and the examination conditions were as follows. Namely, 500 μl of a reaction mixture containing 25 μmol of tris hydrochloride buffer solution (pH 7.0), 0.25 μmol of CaCl2, 5 mg of Lubrol PX, 100 μg of NaN3, each peptide at various concentrations and Benz-I at various concentrations was allowed to react at 30° C. for 20 hours.
50-μl portions of the reaction mixture were sampled after the reaction for 0 and 20 hours and 50 μl of a reaction terminating agent comprising 0.2% of TFA and 10 mM of EDTA was added thereto. The resulting mixture was analyzed by HPLC. The HPLC was conducted by CH3 CN gradient elution with the use of an Ultron NC18 column (0.45×15 cm) or a TSK gel ODS-80TM column (0.46×25 cm) in the presence of 0.1% of TFA.
The residual reaction mixture was chromatographed under the same conditions as those employed in the above analysis and main peaks were fractionated. The fractionated eluate was evaporated to dryness on a centrifugal evaporator and decomposed with hydrochloric acid at 110° C. for 24 hours. Then each fragment was assumed from the amino acid composition.

Another assay relates to protease A. Kind of assay: Activation and inhibition of protease A (stated properties). Type of assay: biochemical, Sporobolomyces odrus IFO 1597. On the procedure: The enzymes was incubated in the absence of any substrate in standard reaction mixtures containing various inhibitors at 25° C. for 30 minutes. After adding the substrate, the residual activity of each enzyme was determined.
The enzyme was reacted in the standard reaction mixture while varying the type and concentration of surfactants.
The activity of the enzyme was determined in the presence of 0.1% of EDTA while varying the concentration of CaCl2. […] The concentration of free CaCl2 was calculated from the apparent dissociation constant (K1) of EDTA for CaCl2 (log K1 =7.3).

Assay [2] deals with protease specific for basic amino acid residue from Sporobolomyces odrus IFO 1597. Type of assay: biochemical. On the procedure: The enzyme was treated in the standard reaction mixture containing 1 mM of EDTA and free from any substrate at 25° C. for 30 minutes. Various metal ions were added thereto each in such an amount as to give a concentration of 1.5 mM and the mixture was incubated at 30° C. for five minutes. Then the activity of each case was determined.

The test system is the same in assay [3]. Put plainly: Behavior of Sporobolomyces protease against various inhibitors (residual activity). In kind it is biochemical. The settings on record: pH 7, 30 min, 1000 µM.
For another assay, the system named is protease B. Put plainly: Activation and inhibition of protease B (stated properties). In kind it is biochemical, Kluyveromyces lactis IFO 1903.
Assay [4] deals with Benz-I (protease specific for basic amino acid residue). Type of assay: biochemical, Kluyveromyces lactis IFO 1903. On the procedure: Benz-I was incubated in the presence of 10 mM of EDTA at 4° C. for one hour. When the enzyme was completely inactivated, the culture was dialyzed against 10 mM tris hydrochloride buffer solution (pH 7.0) containing 0.2% of Lubrol PX to thereby completely remove the EDTA. The enzyme mixture thus dialyzed was examined with respect to the recovery of the activity in reaction mixtures containing 0.5 mM of various metal ions.

The mark [5] stands for this setting: 200 mU Benz-I, 50 nmol peptide, 30° C., 20 hours.

With `CC[C@H](C)[C@H](NC(=O)[C@H](Cc1c[nH]c2ccccc12)NC(=O)[C@@H]1CCCN1C(=O)[C@H](CCCNC(=N)N)NC(=O)[C@H](CCCCN)NC(=O)CNC(=O)[C@@H]1CCC(=O)N1)C(=O)N[C@@H](CC(C)C)C(=O)O` [Xenopsin] ([pGlu]GKRPWIL-OH), in assay [1] (setting [5]), the “Fragment obtained (assumed from amino acid composition) after reaction with Benz-I” value (shortened to “Fragment obtained”) is on record as “pGlu-Gly-Lys-Arg”.
As for `O=C(O)CN(CCN(CC(=O)O)CC(=O)O)CC(=O)O` [ethylenediaminetetraacetic acid], the “inhibition of protease A” value in the assay with protease A is on record as “inhibited”. The Relative activity in assay [2] came to 3%; in assay [2] (pH 7, 1000 µM) it was 0%; in assay [4], 0.36%; in assay [4] (10000 µM), 0.09%. Besides, the “relative activity (residual)” value in assay [3] worked out at 2%. Moreover, in the assay with protease B, the “inhibition of protease B” value is “inhibited”.
As to “RKRSRKE [protein kinase-related peptide]”, the “Fragment obtained” value in assay [1] (setting [5]) was “Ser-Arg-Lys-Glu”.
With “Tyr-Gly-Gly-Phe-Leu-Arg-Arg-Ile-Arg-Pro-Lys-Leu-Lys (YGGFLRRIRPKLK; printed: Tyr-Gly-Gly-Phe-Leu-Arg-Arg-Ile-Arg-Pro-Lys-Leu-Lys) [Dynorphin A (1-13)]”, the “Fragment obtained” value in assay [1] is reported as “Ile-Arg-Pro-Lys-Leu-Lys; also recorded: Try-Gly-Gly-Phe-Leu-Arg-Arg”.
As to “YGGFMRRVGRPEWWMDYQKRYGGFL [3200-dalton Adrenal Peptide E]”, in assay [1], the “Fragment obtained” value is listed as “^1 Tyr-Gly-Gly-Phe-Met-Arg-^7 Arg; also recorded: ^21 Tyr-Gly-Gly-Phe-^25 Leu”.
As to YGGFMRRVRPE [BAM-12P], the “Fragment obtained” value in assay [1] was “Val-Gly-Arg-Pro-Glu”.
